Assays:
Assay type in all cases: functional; call rule not given here
[1] = molecular target: T1, Peroxisome proliferator-activated receptor alpha (Homo sapiens, UniProt Q07869); assay: Agonist activity at human recombinant PPARalpha by GAL4 transactivation assay
T1 sequence (Q07869 whole entry): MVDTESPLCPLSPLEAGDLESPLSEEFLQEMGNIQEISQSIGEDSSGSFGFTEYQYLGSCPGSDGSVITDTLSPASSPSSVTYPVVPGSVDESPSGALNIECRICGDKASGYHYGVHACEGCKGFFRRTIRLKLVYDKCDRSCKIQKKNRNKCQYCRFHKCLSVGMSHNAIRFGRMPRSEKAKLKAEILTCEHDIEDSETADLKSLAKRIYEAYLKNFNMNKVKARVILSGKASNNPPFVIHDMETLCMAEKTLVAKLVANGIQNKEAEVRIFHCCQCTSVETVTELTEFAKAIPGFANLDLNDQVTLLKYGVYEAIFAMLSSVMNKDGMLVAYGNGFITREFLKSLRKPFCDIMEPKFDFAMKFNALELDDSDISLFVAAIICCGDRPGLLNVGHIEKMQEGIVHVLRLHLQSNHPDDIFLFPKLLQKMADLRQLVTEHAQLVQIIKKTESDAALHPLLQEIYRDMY

[2] = molecular target: T2, Peroxisome proliferator-activated receptor gamma (Homo sapiens, UniProt P37231); assay: Agonist activity at human recombinant PPARgamma by GAL4 transactivation assay
T2 sequence (P37231 whole entry): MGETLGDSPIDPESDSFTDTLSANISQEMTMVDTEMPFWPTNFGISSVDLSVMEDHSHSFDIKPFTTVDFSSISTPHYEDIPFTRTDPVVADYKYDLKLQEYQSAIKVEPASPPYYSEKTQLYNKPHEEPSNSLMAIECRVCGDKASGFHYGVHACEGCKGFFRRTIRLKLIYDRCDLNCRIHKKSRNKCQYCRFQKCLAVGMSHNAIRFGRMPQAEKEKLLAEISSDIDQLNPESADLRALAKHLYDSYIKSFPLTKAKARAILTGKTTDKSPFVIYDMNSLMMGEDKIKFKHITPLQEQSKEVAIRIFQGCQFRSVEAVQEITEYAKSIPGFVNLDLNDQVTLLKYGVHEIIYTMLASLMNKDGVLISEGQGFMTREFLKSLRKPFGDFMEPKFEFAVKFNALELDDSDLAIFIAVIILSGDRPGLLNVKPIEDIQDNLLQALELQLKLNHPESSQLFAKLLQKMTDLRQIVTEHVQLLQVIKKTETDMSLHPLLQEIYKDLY

[3] = molecular target: T3, Peroxisome proliferator-activated receptor delta (Homo sapiens, UniProt Q03181); assay: Agonist activity at human recombinant PPARdelta by GAL4 transactivation assay
T3 sequence (Q03181 whole entry): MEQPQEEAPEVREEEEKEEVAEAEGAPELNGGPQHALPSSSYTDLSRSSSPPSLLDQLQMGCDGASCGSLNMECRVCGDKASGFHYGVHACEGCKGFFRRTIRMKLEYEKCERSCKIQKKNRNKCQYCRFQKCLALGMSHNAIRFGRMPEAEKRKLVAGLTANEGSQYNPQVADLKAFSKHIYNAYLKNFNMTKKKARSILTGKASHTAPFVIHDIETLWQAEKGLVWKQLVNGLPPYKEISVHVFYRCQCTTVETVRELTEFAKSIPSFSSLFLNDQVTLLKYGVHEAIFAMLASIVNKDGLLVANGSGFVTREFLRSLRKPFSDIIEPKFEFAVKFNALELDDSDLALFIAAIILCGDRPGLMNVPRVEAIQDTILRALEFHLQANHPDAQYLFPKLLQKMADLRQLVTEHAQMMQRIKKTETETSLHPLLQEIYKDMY

Rattus norvegicus [4] = assay: Increase in liver weight in Sprague-Dawley rat at 1 mg/kg after 7 days
Mus musculus [5] = assay: Increase in plasma HDL-C in human apoA1 transgenic mouse at 3 mg/kg after 14 days
Rattus norvegicus [6] = assay: Decrease in triglyceride level in Sprague-Dawley rat at 1 mg/kg after 7 days; parameters: scale not given: the % may be the effect or the level left
Mus musculus [7] = assay: Increase in plasma HDL-C in human apoA1 transgenic mouse at 300 mg/kg after 14 days
Mus musculus [8] = assay: Increase in plasma HDL-C in human apoA1 transgenic mouse at 1 mg/kg after 14 days

EC50 ([1]; read-out: EC50)	EC50 ([2]; read-out: EC50)	EC50 ([3]; read-out: EC50)	SMILES	also measured
23 nM	400 nM	160 nM	CCC(Oc1cccc(CN(CCCOc2ccccc2)c2nc3cc(C(F)(F)F)ccc3o2)c1)C(=O)O (centres undefined)	–
20 nM	1190 nM	1570 nM	CC[C@H](Oc1cccc(CN(CCCOc2ccc(F)cc2)c2nc3ccccc3o2)c1)C(=O)O	–
–	–	–	CC[C@@H](Oc1cccc(CN(CCCOc2ccccc2)c2nc3ccccc3o2)c1)C(=O)O	Activity (Rattus norvegicus [4]): 19%; Activity (Mus musculus [5]): 201%; Activity (Rattus norvegicus [6]): -51%
180 nM	> 10000 nM	140 nM	CCC(Oc1cccc(CN(CCCOc2ccccc2)c2nc3cc(O)ccc3o2)c1)C(=O)O (centres undefined)	–
630 nM	2100 nM	–	CC(C)(Oc1cccc(CN(CCOc2ccccc2)c2nc3ccccc3o2)c1)C(=O)O	–
–	–	–	CC[C@@H](Oc1cccc(CN(CCCOc2ccc(F)cc2)c2nc3ccccc3o2)c1)C(=O)O	Activity (Rattus norvegicus [4]): 20%; Activity (Mus musculus [5]): 147%; Activity (Rattus norvegicus [6]): -46%
2 nM	1800 nM	1300 nM	CCC(Oc1cccc(CN(CCCOc2ccc(F)c(F)c2)c2nc3ccccc3o2)c1)C(=O)O (centres undefined)	–
–	–	–	CC(C)(Oc1ccc(CN(CCOc2ccccc2)c2nc3ccccc3o2)cc1)C(=O)O	EC50 [1]: Not Active; EC50 [2]: Not Active; EC50 [3]: Not Active
5 nM	1100 nM	1900 nM	CCC(Oc1cccc(CN(CCCOc2ccccc2)c2nc3ccc(F)cc3o2)c1)C(=O)O (centres undefined)	–
–	210 nM	120 nM	CCC(Oc1cccc(CN(CCCOc2ccc(C)cc2)c2nc3ccccc3o2)c1)C(=O)O (centres undefined)	–
–	1310 nM	1800 nM	CC[C@H](Oc1cccc(CN(CCCOc2ccc(OC)cc2)c2nc3ccccc3o2)c1)C(=O)O	–
–	–	2700 nM	CC(Oc1cccc(CN(CCCOc2ccccc2)c2nc3ccccc3o2)c1)C(=O)O (centres undefined)	–
–	> 10000 nM	–	CCC(Oc1cccc(CN(CCCOc2ccc(OC)cc2)c2nc3ccccc3o2)c1)C(=O)O (centres undefined)	–
10 nM	1800 nM	2300 nM	CC(Oc1cccc(CCN(CCCOc2ccccc2)c2nc3ccccc3o2)c1)C(=O)O (centres undefined)	–
11 nM	2100 nM	6500 nM	CCC(Oc1cccc(CN(CCCOc2ccc(F)cc2F)c2nc3ccccc3o2)c1)C(=O)O (centres undefined)	–
–	–	–	CC(C)OC(=O)C(C)(C)Oc1ccc(C(=O)c2ccc(Cl)cc2)cc1 [FENOFIBRATE]	Activity (Mus musculus [7]): 145%
9 nM	> 10000 nM	–	CCC(Oc1cccc(CN(CCCOc2ccccc2)c2nc3ccccc3o2)c1)C(=O)O (centres undefined)	–
24 nM	> 10000 nM	1400 nM	CCC(Oc1cccc(CN(CCCOc2cccc([N+](=O)[O-])c2)c2nc3ccccc3o2)c1)C(=O)O (centres undefined)	–
–	–	–	CC(C)(Oc1ccccc1CN(CCOc1ccccc1)c1nc2ccccc2o1)C(=O)O	EC50 [1]: Not Active; EC50 [2]: Not Active; EC50 [3]: Not Active
100 nM	> 10000 nM	5000 nM	CCC(Oc1cccc(CN(CCCOc2ccccc2)c2nc3cc(C)ccc3o2)c1)C(=O)O (centres undefined)	–
8 nM	> 10000 nM	–	CCC(Oc1cccc(CN(CCCOc2ccc(F)cc2)c2nc3ccccc3o2)c1)C(=O)O (centres undefined)	–
160 nM	2000 nM	1900 nM	CCC(Oc1cccc(CN(CCCOc2ccccc2)c2nc3c(O)cccc3o2)c1)C(=O)O (centres undefined)	–
130 nM	870 nM	1660 nM	CC[C@H](Oc1cccc(CN(CCCOc2ccccc2)c2nc3ccccc3o2)c1)C(=O)O	–
2 nM	530 nM	8000 nM	CCC(Oc1cccc(CN(CCCOc2ccccc2)c2nc3cccc(F)c3o2)c1)C(=O)O (centres undefined)	–
7 nM	1800 nM	1700 nM	CCC(Oc1cccc(CN(CCCOc2ccc3c(c2)OCO3)c2nc3ccccc3o2)c1)C(=O)O (centres undefined)	–
190 nM	5000 nM	1400 nM	CC(C)(Oc1cccc(CN(CCCOc2ccccc2)c2nc3ccccc3o2)c1)C(=O)O	–
120 nM	> 10000 nM	–	CCC(Oc1cccc(CN(CCCOc2ccc(S(=O)(=O)OC)cc2)c2nc3ccccc3o2)c1)C(=O)O (centres undefined)	–
1 nM	750 nM	830 nM	CCC(Oc1cccc(CN(CCCOc2ccc(C)c(C)c2)c2nc3ccccc3o2)c1)C(=O)O (centres undefined)	–
–	–	1580 nM	CC[C@@H](Oc1cccc(CN(CCCOc2ccc(OC)cc2)c2nc3ccccc3o2)c1)C(=O)O [PEMAFIBRATE]	Activity (Rattus norvegicus [4]): 25%; Activity (Mus musculus [8]): 194%; Activity (Rattus norvegicus [6]): -49%

SMILES	EC50 ([1]; read-out: EC50)	EC50 ([2]; read-out: EC50)	EC50 ([3]; read-out: EC50)	also measured
CCC(Oc1cccc(CN(CCCOc2ccc(O)cc2)c2nc3ccccc3o2)c1)C(=O)O (centres undefined)	260 nM	1400 nM	3 nM	–
CC(C)(Oc1cccc(CCCN(CCOc2ccccc2)c2nc3ccccc3o2)c1)C(=O)O	–	100 nM	800 nM	–
CCC(Oc1cccc(CN(CCCOc2ccc(C)cc2C)c2nc3ccccc3o2)c1)C(=O)O (centres undefined)	1 nM	130 nM	110 nM	–

Source: ChEMBL document CHEMBL1140024 (Bioorg Med Chem Lett, 2007)
